In patent US4265901A, “2-Oxybenzimidazoline compounds” (priority 1979, dated 1981):
Where “and” joins values, the source holds several entries; their conditions need not be identical. Equal values may be shown once. Where a name gives a salt, the structure may show the parent alone.

Columns and labels:
Corn [1] = assay: Pre-emergence herbicide test, corn; assay type: in vivo, Zea mays; conditions: 8 lb/A
Protocol: (§1) In this evaluation, each compound to be tested was dissolved in a 1:1 mixture of acetone and ethanol containing a small amount of Toximul R and Toximul S (each a sulfonate/nonionic blend produced by Stepan Chemical Company, Northfield, Illinois). The solution was then diluted with deionized water to a composition of the following concentrations, by weight: Plant species used as indicators of herbicidal activity were planted in galvanized pans (flats) 31.5 cm. long, 21.5 cm. wide, and 8.0 cm. deep. The bottoms of the flats had holes to facilitate drainage. The soil used was a 1:1 ratio by volume of masonry sand and shredded top soil. Seeds of seven indicator species were planted in rows perpendicular to the long axis of the flat, one species per row, and covered with 0.5 to 1.0 cm. of sterilized soil. Indicator species and approximate number of seeds planted were as follows: Flats that were to receive preemergence treatments were planted one day prior to, or on the same day treatments were applied. Flats that were to receive postemergence treatments were planted 9 days prior to treatment and placed in a growth chamber until the day of treatment. In the growth chamber, flats received 12 to 18 hours of light per day and were subject to temperatures of 75° to 85° F. The formulated test compound was applied uniformly to the indicator species with a modified DeVilbiss atomizer using air pressure of 3 to 5 psi. Each flat received 12.5 ml. of spray solution which was equal to 200 gallons/acre total spray volume. Plants were maintained in a greenhouse after treatment. Herbicidal effects of chemicals were evaluated by two injury rating systems 18 days after preemergence applications and 14 days after postemergence applications. The degree of plant injury was based on a 1 to 5 scale and a single numerical rating was assigned to each test species as follows: […]

Pigweed = assay: Pre-emergence herbicide test, pigweed; assay type: in vivo, Amaranthus retroflexus; conditions: 8 lb/A
Protocol: as §1

Morning-glory [2] = assay: Pre-emergence herbicide test, morningglory; assay type: in vivo, Ipomoea purpurea; conditions: 8 lb/A
Protocol: as §1

Zinnia [3] = assay: Pre-emergence herbicide test, zinnia; assay type: in vivo, Zinnia elegans; conditions: 8 lb/A
Protocol: as §1

Corn [4] = assay: Post-emergence herbicide test, corn; assay type: in vivo, Zea mays
Protocol: as §1

Large Crabgrass = assay: Post-emergence herbicide test, large crabgrass; assay type: in vivo, Digitaria sanguinalis
Protocol: as §1

Velvetleaf = assay: Post-emergence herbicide test, velvetleaf; assay type: in vivo, Abutilon theophrasti
Protocol: as §1

Morning-glory [5] = assay: Post-emergence herbicide test, morningglory; assay type: in vivo, Ipomoea purpurea
Protocol: as §1

Zinnia [6] = assay: Post-emergence herbicide test, zinnia; assay type: in vivo, Zinnia elegans
Protocol: as §1

Mexican bean beetle = Mexican bean beetle test; assay type: in vivo, Epilachna varivestis; conditions: 1000 ppm, 4 days; further: ranges in brackets are in %
Protocol: (§2) In this evaluation, each compound to be tested was dissolved in a 1:1 mixture of acetone and ethanol containing a small amount of Toximul R and Toximul S (each a sulfonate/nonionic blend produced by Stephan Chemical Company, Northfield, Ill.). The solution was then diluted with distilled water to a concentration of 1000 ppm of test compound.
This test was conducted with second instar larvae of Epilachna varivestis Mulsant, order Coleoptera, family Coccinellidae. Larvae for the test, of uniform size and not molting, were picked by hand from flats of Bountiful snap beans on which they were grown and were placed in 100×20 mm plastic petri dishes for testing. Five larvae were used per replicate.
Two 4- to 6-day-old Bountiful green bean primry leaves (approximately 6 sq. in. of leaf surface) were used for each replicate. Two replicates were run per compound.
[…] […] The nozzle of the atomizer was held 12 to 18 inches from the leaves and was supplied with 5-6 psi air pressure. The atomizer was rinsed with acetone after each compound was sprayed. The plants were allowed to dry. The leaves were then cut from the plants and placed in the petri dishes containing the bean beetle larvae. A small wad of wet cellucotton was added to each dish to help prevent the leaves from wilting.
After 4 days, a mortality count was made and the amount of feeding was noted. Moribund larvae were counted as dead.

Southern armyworm = Southern armyworm test; assay type: in vivo, Spodoptera eridania; conditions: 1000 ppm, 4 days; on Southern Armyworm Stom. (mortality rating): ranges in brackets are in %
Protocol: as §2
This test was conducted with second to third instar larvae of Spodoptera eridania Cramer, Order Lepidoptera, Family Noctuidae. Uniform larvae (3rd instar) about 1 to 1.2 cm. in length were picked by hand from flats of Henderson lima beans and placed in plastic petri dishes.
The procedure otherwise was the same as used with the Mexican bean beetle reported above, except that 5 ml. of a formulation containing 100 ppm (0.01%) DDT [1,1,1-trichloro-2,2-bis(p-chlorophenyl)ethane] was used as the reference standard.

two-spotted spider mite = assay: Two-spotted spider mite test; assay type: in vivo, Tetranychus urticae; conditions: 1000 ppm, 4 days; further: ranges in brackets are in %
Protocol: as §2, with “compound. Lesser concentration formulations were made by diluting a portion of the 1000 ppm solution with distilled water containing 225 mg. of Toximul R and 125 mg. of Toximul S per liter.” for “compound.”
This test was conducted with nymphs and adults of Tetranychus urticae (Koch), Order Acarina, Family Tetranychidae.
This test was run using blue hubbard squash plants which were grown in vermiculite (insulation grade No. 1) in 5 oz. plastic Dixie cups. One cotyledon is removed from each plant to remain in the cups. On retests two plants were left in each cup and on regular initial tests one plant was left in each cup. Each cotyledon is infested by placing a mite infested trifoliate bean leaf on if. Infected plants in cups were held for one day, then sprayed to wetting with formulations containing 1000 ppm of the test compound, using the DeVilbiss atomizer with 5-6 psi air pressure. Retests were run at 100 ppm. Tests were read four days after treatment. Two unsprayed but infested plants were held as a control. Two infested plants were sprayed with a formulation containing 750 ppm of galecron [N'-(4-chloro-o-tolyl)-N,N-dimethylformamidine monohydrochloride] as a reference standard.

SMILES: O=[N+]([O-])c1cc(Cl)cc2c1NC(O)(C(F)F)N2 (stereo not shown) [Example 5, 2-Hydroxy-2-(Difluoromethyl)-4-Nitro-6-Chlorobenzimidazoline, Calcium Salt]
- plant injury rating (Corn [1]): 1 (no injury)
- plant injury rating (Pigweed): 2S
- plant injury rating (Morning-glory [2]): 3RS
- plant injury rating (Zinnia [3]): 4R
- plant injury rating (Corn [4]; 1 lb/A): 1 (no injury)
- plant injury rating (Corn [4]; 2 lb/A): 2B
- plant injury rating (Corn [4]; 4 lb/A): 4BS
- plant injury rating (Corn [4]; 8 lb/A): 5D
- plant injury rating (Large Crabgrass; 1 lb/A): 3BS
- plant injury rating (Large Crabgrass; 2 lb/A): 3BS
- plant injury rating (Large Crabgrass; 4 lb/A): 4BS
- plant injury rating (Large Crabgrass; 8 lb/A): 4BS
- plant injury rating (Velvetleaf; 1 lb/A): 3BS
- plant injury rating (Velvetleaf; 2 lb/A): 3BS
- plant injury rating (Velvetleaf; 4 lb/A): 4BS
- plant injury rating (Velvetleaf; 8 lb/A): 5D
- plant injury rating (Morning-glory [5]; 1 lb/A): 2BS
- plant injury rating (Morning-glory [5]; 2 lb/A): 2BS
- plant injury rating (Morning-glory [5]; 4 lb/A): 3BS
- plant injury rating (Morning-glory [5]; 8 lb/A): 4BS
- plant injury rating (Zinnia [6]; 1 lb/A): 3BS
- plant injury rating (Zinnia [6]; 2 lb/A): 3BS
- plant injury rating (Zinnia [6]; 4 lb/A): 4BS
- plant injury rating (Zinnia [6]; 8 lb/A): 5D
- Mexican Bean Beetle Stom. (mortality rating) (Mexican bean beetle): 3 (100)
- Southern Armyworm Feed. (feeding rating) (Southern armyworm): 1 (1-50% of the leaves eaten)
- Southern Armyworm Stom. (mortality rating) (Southern armyworm; Calcium Salt): 3 (100) and 2 (51-99)
- 2-Sp. Spider Mite Cont. (mortality rating) (two-spotted spider mite): 3 (100)
